In brackets after ≈: the same amount, converted by molar mass. Several values for one entry are separate records, joined by “and”; a condition that tells them apart may be missing. Equal entries are not always repeated. *1 amine or outer side, *2 acyl side, *3 side chain or, on linkers, in order; H or OH if unused. Where a SMILES comes first, the peptide text is derived from it. [ ]: non-standard residue; d: D form. X1 = C#CCn1cc(C[C@H](N[*:1])C(=O)[*:2])c2ccccc21; NMeLeu(5-OH,4R) = CN[C@@H](C[C@@H](C)CO)C(=O)O; Phe(βR-OMe) = CO[C@H](c1ccccc1)[C@H](N)C(=O)O; Trp(1-Me) = Cn1cc(C[C@H](N)C(=O)O)c2ccccc21; NMeL = CN[C@@H](CC(C)C)C(=O)O; Pra = C#CC[C@H](N)C(=O)O
Test system: Mtb (RpoB S450L) ATCC 35838
Type: cell-based, Mycobacterium tuberculosis

SMILES | MIC
COc1c(N2C[C@@H]3CCCN[C@@H]3C2)c(F)cc2c(=O)c(C(=O)O)cn(C3CC3)c12 [Moxifloxacin, reference compound] | 0.3 ± 0.0 µM and 0.31 µM
COC(c1ccccc1)C1NC(=O)C(C)NC(=O)C(CC(C)CO)N(C)C(=O)C(Cc2cn(C)c3ccccc23)NC(=O)C(Cc2cn(CCCCCn3cc(CC4NC(=O)C(CC(C)C)N(C)C(=O)C(C(C)C)NC(=O)C(C(OC)c5ccccc5)NC(=O)C(C)NC(=O)C(CC(C)CO)N(C)C(=O)C(Cc5cn(C)c6ccccc56)NC4=O)nn3)nn2)NC(=O)C(CC(C)C)N(C)C(=O)C(C(C)C)NC1=O (stereo not shown) [Compound 12] | 0.2 ± 0.0 µM (≈ 0.396 µg/mL)
CO[C@H]1/C=C/O[C@@]2(C)Oc3c(C)c(O)c4c(O)c(c(/C=N/N5CCN(C)CC5)c(O)c4c3C2=O)NC(=O)/C(C)=C\C=C\[C@H](C)[C@H](O)[C@@H](C)[C@@H](O)[C@@H](C)[C@H](OC(C)=O)[C@@H]1C [Rifampicin, reference compound] | >38.9 µM and >38.88 µM
C#CCn1cc(C[C@@H]2NC(=O)[C@H](C(C)C)NC(=O)[C@H](CC(C)C)N(C)C(=O)[C@H](C(C)C)NC(=O)[C@H]([C@H](OC)c3ccccc3)NC(=O)[C@H](C)NC(=O)[C@H](C[C@@H](C)CO)N(C)C2=O)c2ccccc21 [Compound 5] (cyclo(A[Phe(βR-OMe)]V[NMeL]V[X1][NMeLeu(5-OH,4R)])) | 0.4 ± 0.0 µM (≈ 0.376 µg/mL)
NNC(=O)c1ccncc1 [Isoniazid] | 0.5 ± 0.0 µM and 0.45 µM
COC(c1ccccc1)C1NC(=O)C(C)NC(=O)C(CC(C)CO)N(C)C(=O)C(Cc2cn(Cc3cn(CCOCCOCCOCCOCCn4cc(Cn5cc(CC6NC(=O)C(C(C)C)NC(=O)C(CC(C)C)N(C)C(=O)C(C(C)C)NC(=O)C(C(OC)c7ccccc7)NC(=O)C(C)NC(=O)C(CC(C)CO)N(C)C6=O)c6ccccc65)nn4)nn3)c3ccccc23)NC(=O)C(C(C)C)NC(=O)C(CC(C)C)N(C)C(=O)C(C(C)C)NC1=O (stereo not shown) [Compound 8] | 0.2 ± 0.0 µM (≈ 0.434 µg/mL)
C#CC[C@@H]1NC(=O)[C@H](CC(C)C)N(C)C(=O)[C@H](C(C)C)NC(=O)[C@H]([C@H](OC)c2ccccc2)NC(=O)[C@H](C)NC(=O)[C@H](C[C@@H](C)CO)N(C)C(=O)[C@H](Cc2cn(C)c3ccccc23)NC1=O [Compound 10] (cyclo(A[Phe(βR-OMe)]V[NMeL][Pra][Trp(1-Me)][NMeLeu(5-OH,4R)])) | 1.6 ± 0.0 µM (≈ 1.46 µg/mL)

Source: article PMC10914731, “Homo-BacPROTAC-induced degradation of ClpC1 as a strategy against drug-resistant mycobacteria” (Nature Communications, 2024)
